Assay results reported in the NIST ThermoML archive (doi:10.1021/je800463k).

Assay: mn = molality of the nth substance listed, in mol/kg
Conditions: 101 kPa, Liquid; for electrical conductivity: Frequency=0.001 MHz, Alternating current cell with electrodes; for speed of sound: Frequency=2 MHz; for mass density: Pycnometric method

[Mg+2].[O-][Cl+3]([O-])([O-])[O-].[O-][Cl+3]([O-])([O-])[O-] [magnesium perchlorate] + CO
Conditions | electrical conductivity [S/m] | mass density [kg/m3] | speed of sound [m/s] | viscosity [mPa·s]
273.15 K, m1 = 0.0542 | 0.2699 | – | 1195.2 | 0.8742
273.15 K, m1 = 0.078 | 0.4031 | – | 1201.1 | –
273.15 K, m1 = 0.0925 | 0.4435 | – | 1203.6 | 0.9094
273.15 K, m1 = 0.1673 | 0.6702 | – | 1212.8 | 0.9874
273.15 K, m1 = 0.2872 | 0.9762 | – | 1226 | 1.13
273.15 K, m1 = 0.3228 | 1.058 | – | 1230.6 | 1.168
273.15 K, m1 = 0.4313 | 1.299 | – | 1245.5 | 1.329
273.15 K, m1 = 0.6444 | 1.752 | – | 1268.2 | 1.64
273.15 K, m1 = 1.059 | 2.122 | – | 1308.9 | 2.393
273.15 K, m1 = 1.395 | 2.273 | – | 1342.5 | 3.292
273.15 K, m1 = 1.717 | 2.343 | – | 1366.9 | 3.854
273.15 K, m1 = 2 | 2.355 | – | 1385.5 | 4.766
283.15 K, m1 = 0.0542 | 0.3054 | – | 1162.7 | 0.7345
283.15 K, m1 = 0.078 | 0.4563 | – | 1167.8 | –
283.15 K, m1 = 0.0925 | 0.5023 | – | 1170.8 | 0.768
283.15 K, m1 = 0.1673 | 0.7619 | – | 1178.9 | 0.8318
283.15 K, m1 = 0.2872 | 1.116 | – | 1193.9 | 0.9437
283.15 K, m1 = 0.3228 | 1.213 | – | 1197.5 | 0.9745
283.15 K, m1 = 0.4313 | 1.497 | – | 1213.2 | 1.102
283.15 K, m1 = 0.6444 | 2.001 | – | 1236.8 | 1.342
283.15 K, m1 = 1.059 | 2.513 | – | 1278.5 | 1.928
283.15 K, m1 = 1.395 | 2.731 | – | 1313.4 | 2.608
283.15 K, m1 = 1.717 | 2.848 | – | 1336.5 | 3.023
283.15 K, m1 = 2 | 2.892 | – | 1358.1 | 3.682
293.15 K, m1 = 0.0542 | 0.3414 | – | 1128.4 | 0.6286
293.15 K, m1 = 0.078 | 0.5074 | – | 1134.9 | –
293.15 K, m1 = 0.0925 | 0.5615 | – | 1137.7 | 0.6569
293.15 K, m1 = 0.1673 | 0.854 | – | 1146 | 0.7098
293.15 K, m1 = 0.2872 | 1.253 | – | 1161.8 | 0.7995
293.15 K, m1 = 0.3228 | 1.37 | – | 1165.4 | 0.8248
293.15 K, m1 = 0.4313 | 1.702 | – | 1181.4 | 0.9286
293.15 K, m1 = 0.6444 | 2.209 | – | 1205.9 | 1.112
293.15 K, m1 = 1.059 | 2.926 | – | 1247.5 | 1.585
293.15 K, m1 = 1.395 | 3.221 | – | 1282.1 | 2.11
293.15 K, m1 = 1.717 | 3.39 | – | 1307.5 | 2.43
293.15 K, m1 = 2 | 3.474 | – | 1329.1 | 2.923
294 K, m1 = 0.078 | – | 802.89 | – | –
295.3 K, m1 = 0.0925 | – | 802.82 | – | –
296.85 K, m1 = 0.3228 | – | 829.87 | – | –
296.9 K, m1 = 0.2872 | – | 825.72 | – | –
297.7 K, m1 = 0.078 | – | 799.44 | – | –
298 K, m1 = 0.0925 | – | 800.22 | – | –
298.15 K, m1 = 0.0542 | 0.3599 | – | 1111.3 | 0.5841
298.15 K, m1 = 0.078 | 0.5344 | – | 1119.1 | –
298.15 K, m1 = 0.0925 | 0.5917 | – | 1121.2 | 0.6098
298.15 K, m1 = 0.1673 | 0.9009 | – | 1129.8 | 0.656
298.15 K, m1 = 0.2872 | 1.332 | – | 1145.7 | 0.7391
298.15 K, m1 = 0.3228 | 1.452 | – | 1149.1 | 0.7618
298.15 K, m1 = 0.4313 | 1.807 | – | 1165.2 | 0.856
298.15 K, m1 = 0.6444 | 2.389 | – | 1189.2 | 1.019
298.15 K, m1 = 1.059 | 3.143 | – | 1232 | 1.446
298.15 K, m1 = 1.395 | 3.48 | – | 1267.7 | 1.91
298.15 K, m1 = 1.717 | 3.683 | – | 1293.2 | 2.196
298.15 K, m1 = 2 | 3.779 | – | 1314.4 | 2.624
298.3 K, m1 = 0.1673 | – | 809.54 | – | –
299.45 K, m1 = 0.078 | – | 797.76 | – | –
299.75 K, m1 = 0.3228 | – | 827.21 | – | –
299.8 K, m1 = 0.0925 | – | 798.59 | – | –
299.8 K, m1 = 0.2872 | – | 823.08 | – | –
301.15 K, m1 = 0.078 | – | 796.1 | – | –
301.15 K, m1 = 0.1673 | – | 806.95 | – | –
